Measured values reported in ChEMBL document CHEMBL1153188, “Quinoline-3-carboxamide containing sulfones as liver X receptor (LXR) agonists with binding selectivity for LXRbeta and low blood-brain penetration” (Bioorg Med Chem Lett, 2010).

Columns and labels:
[1] = target: T1, Oxysterols receptor LXR-alpha (Homo sapiens, UniProt Q13133); assay: Displacement of [3H]TO901317 from human recombinant LXRalpha expressed in Escherichia coli by flashplate method
T1 sequence (Q13133 whole entry): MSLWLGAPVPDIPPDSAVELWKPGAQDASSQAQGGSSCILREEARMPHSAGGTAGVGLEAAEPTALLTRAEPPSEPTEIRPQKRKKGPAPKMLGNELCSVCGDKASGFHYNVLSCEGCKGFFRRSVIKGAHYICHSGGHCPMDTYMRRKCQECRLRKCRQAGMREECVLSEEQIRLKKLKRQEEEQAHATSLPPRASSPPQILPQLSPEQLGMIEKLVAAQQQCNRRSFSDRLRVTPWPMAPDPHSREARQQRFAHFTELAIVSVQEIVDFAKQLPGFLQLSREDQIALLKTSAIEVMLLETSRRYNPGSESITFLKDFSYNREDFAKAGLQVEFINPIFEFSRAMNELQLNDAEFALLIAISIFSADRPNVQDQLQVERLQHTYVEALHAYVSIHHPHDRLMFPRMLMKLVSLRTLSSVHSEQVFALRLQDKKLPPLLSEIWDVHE

[2] = target: T2, Oxysterols receptor LXR-beta (Homo sapiens, UniProt P55055); assay: Displacement of [3H]TO901317 from human recombinant LXRbeta expressed in Escherichia coli by flashplate method
T2 sequence (P55055 whole entry): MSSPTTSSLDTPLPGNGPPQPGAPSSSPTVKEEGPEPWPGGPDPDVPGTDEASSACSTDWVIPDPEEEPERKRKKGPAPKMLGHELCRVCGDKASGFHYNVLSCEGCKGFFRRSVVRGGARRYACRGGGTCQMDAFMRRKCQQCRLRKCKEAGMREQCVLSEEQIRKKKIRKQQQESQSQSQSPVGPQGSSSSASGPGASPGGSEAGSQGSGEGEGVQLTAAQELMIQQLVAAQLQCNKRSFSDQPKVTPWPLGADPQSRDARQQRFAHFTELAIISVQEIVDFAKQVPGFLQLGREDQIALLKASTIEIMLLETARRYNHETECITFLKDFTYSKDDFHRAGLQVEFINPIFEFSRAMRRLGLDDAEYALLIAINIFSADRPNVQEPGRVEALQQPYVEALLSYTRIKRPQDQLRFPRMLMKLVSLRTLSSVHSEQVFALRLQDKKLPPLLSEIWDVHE

Plasma [3] = assay: AUC (0 to infinity) in Long Evans rat plasma at 30 mg/kg, po; type: ADME, organism-based; parameters: time infinity, dose 30 mg/kg, route oral; conditions: in vivo
HepG2 [4] = assay: Effect on triglyceride accumulation in human HepG2 cells; type: functional, cell-based
[5] = Ratio of AUC (0 to infinity) in brain to AUC (0 to infinity) in plasma in Long Evans rat at 30 mg/kg, po; type: ADME, organism-based; parameters: dose 30 mg/kg, route oral; conditions: brain and plasma
THP-1 [6] = assay: Effect on ABCA1 gene expression in human differentiated THP1 cells relative to TO901317; type: functional
Plasma [7] = assay: AUC (0 to infinity) in Long Evans rat brain at 30 mg/kg, po; type: ADME, organism-based; parameters: time infinity, dose 30 mg/kg, route oral; conditions: in vivo
HepG2 [8] = assay: Effect on triglyceride accumulation in human HepG2 cells relative to TO901317; type: functional
[9] = Cmax in Long Evans rat plasma at 30 mg/kg, po; type: ADME, organism-based; parameters: dose 30 mg/kg, route oral
[10] = Cmax in Long Evans rat brain at 30 mg/kg, po; type: ADME, organism-based; parameters: dose 30 mg/kg, route oral
[11] = target: T2, Oxysterols receptor LXR-beta
THP-1 [12] = assay: Effect on ABCA1 gene expression in human differentiated THP1 cells; type: functional, cell-based
[13] = target: T1, Oxysterols receptor LXR-alpha
THP-1 [14] = assay: Stimulation of [3H]cholesterol efflux in human THP1 foam cells loaded with ac-LDL relative to TO901317; type: functional, cell-based
THP-1 [15] = assay: Stimulation of [3H]cholesterol efflux in human THP1 foam cells loaded with ac-LDL; type: functional, cell-based
Plasma [16] = assay: AUC (0 to infinity) in Long Evans rat plasma at 10 mg/kg, po; type: ADME, organism-based; parameters: time infinity, dose 10 mg/kg, route oral; conditions: in vivo
Plasma [17] = assay: AUC (0 to infinity) in Long Evans rat brain at 10 mg/kg, po; type: ADME, organism-based; parameters: time infinity, dose 10 mg/kg, route oral; conditions: in vivo
[18] = Ratio of AUC (0 to infinity) in brain to AUC (0 to infinity) in plasma in Long Evans rat at 10 mg/kg, po; type: ADME, organism-based; parameters: dose 10 mg/kg, route oral; conditions: brain and plasma
[19] = Cmax in Long Evans rat plasma at 10 mg/kg, po; type: ADME, organism-based; parameters: dose 10 mg/kg, route oral
[20] = Cmax in Long Evans rat brain at 10 mg/kg, po; type: ADME, organism-based; parameters: dose 10 mg/kg, route oral

| SMILES | IC50 [1] [nM] | IC50 [2] [nM] | further results |
| --- | --- | --- | --- |
| CS(=O)(=O)c1cccc(Oc2cccc(-c3c(CN)cnc4c(C(F)(F)F)cccc34)c2)c1 | 445 | 77 | – |
| CCOC(=O)c1cnc2c(C(F)(F)F)cccc2c1-c1cccc(Oc2cccc(S(C)(=O)=O)c2)c1 | 6.6 | 2 | – |
| CC(C)S(=O)(=O)c1cccc(Oc2cccc(-c3c(C(N)=O)cnc4c(C(F)(F)F)cccc34)c2)c1 | 286 | 5 | – |
| CS(=O)(=O)c1cccc(Oc2cccc(-c3c(C(=N)N)cnc4c(C(F)(F)F)cccc34)c2)c1 | 29800 | 5130 | – |
| CS(=O)(=O)c1cccc(Oc2cccc(-c3c(C(=O)O)cnc4c(C(F)(F)F)cccc34)c2)c1 | 6350 | 1080 | – |
| CNC(=O)c1cnc2c(C(F)(F)F)cccc2c1-c1cccc(Oc2cccc(S(C)(=O)=O)c2)c1 | > 10000 | 367 | – |
| CS(=O)(=O)c1cccc(Oc2cccc(-c3c(C(N)=O)cnc4ccccc34)c2)c1 | > 10000 | 2850 | – |
| CS(=O)(=O)c1cccc(Oc2cccc(-c3c(-n4cnnn4)cnc4c(C(F)(F)F)cccc34)c2)c1 | 26600 | 5290 | – |
| Fc1ccc(-c2c3cccc(C(F)(F)F)c3nn2Cc2ccc(F)cc2Cl)cc1 [LXR-623] | – | – | AUC (Plasma [3]): 13057 ng/mL; EC50 (HepG2 [4]): 1000 nM; Kp [5]: 1.2; Efficacy (THP-1 [6]): 100%; AUC (Plasma [7]): 15312 ng/mL; Efficacy (HepG2 [8]): 38%; Cmax [9]: 2850 ng/mL; Cmax [10]: 3530 ng/mL |
| CS(=O)(=O)c1cccc(Oc2cccc(-c3c(C(N)=O)cnc4c(C(F)(F)F)cccc34)c2)c1 | 600 | 18 | EC50 [11]: 1600 nM; EC50 (HepG2 [4]): 370 nM; Efficacy (THP-1 [6]): 104%; EC50 (THP-1 [12]): 110 nM; Efficacy (HepG2 [8]): 47%; EC50 [13]: 4500 nM |
| CS(=O)(=O)c1cc(Cl)cc(Oc2cccc(-c3c(C(N)=O)cnc4c(C(F)(F)F)cccc34)c2)c1 | 1770 | 62 | – |
| CS(=O)(=O)c1cccc(Oc2cccc(-c3c(C(N)=O)cnc4c(F)cccc34)c2)c1 | 12700 | 590 | – |
| O=C(O)Cc1ccc(COc2cccc(-c3c(Cc4ccccc4)cnc4c(C(F)(F)F)cccc34)c2)cc1 | – | – | Activity (THP-1 [14]): 88% |
| CCNC(=O)c1cnc2c(C(F)(F)F)cccc2c1-c1cccc(Oc2cccc(S(C)(=O)=O)c2)c1 | 6860 | 730 | – |

The remaining molecules from weak to strong by IC50 [1], led by results:

| IC50 [1] [nM] | IC50 [2] [nM] | SMILES | further results |
| --- | --- | --- | --- |
| 1360 | 57 | CCCS(=O)(=O)c1cccc(Oc2cccc(-c3c(C(N)=O)cnc4c(C(F)(F)F)cccc34)c2)c1 | – |
| 756 | 28 | Cc1cccc2c(-c3cccc(Oc4cccc(S(C)(=O)=O)c4)c3)c(C(N)=O)cnc12 | – |
| 552 | 18 | CS(=O)(=O)c1cc(F)cc(Oc2cccc(-c3c(C(N)=O)cnc4c(C(F)(F)F)cccc34)c2)c1 | – |
| 543 | 16 | CS(=O)(=O)c1cccc(Oc2cccc(-c3c(C(N)=O)cnc4c(Cl)cccc34)c2)c1 | EC50 [11]: 630 nM; EC50 (THP-1 [15]): 10 nM; EC50 (HepG2 [4]): 1250 nM; AUC (Plasma [16]): 5417 ng/mL; Activity (THP-1 [14]): 71%; AUC (Plasma [17]): 457 ng/mL; Kp [18]: 0.08; Efficacy (THP-1 [6]): 107%; EC50 (THP-1 [12]): 440 nM; Efficacy (HepG2 [8]): 68%; EC50 [13]: 3000 nM; Cmax [19]: 1270 ng/mL; Cmax [20]: 107 ng/mL |
| 453 | 11 | CCS(=O)(=O)c1cccc(Oc2cccc(-c3c(C(N)=O)cnc4c(C(F)(F)F)cccc34)c2)c1 | – |
| 13.4 | 2.2 | CS(=O)(=O)c1cccc(Oc2cccc(-c3c(C#N)cnc4c(C(F)(F)F)cccc34)c2)c1 | – |
